Some test systems named below: EKVX NSCLC; MCF7 breast; SNB-75 CNS; BT-549 breast; HL-60(TB) leukemia; UACC-257 melanoma; 786-0 renal; MDA-MB-435; HOP-62 NSCLC; CCRF-CEM leukemia; SK-MEL-5 melanoma; SR leukemia; RPMI-8226 leukemia; SK-MEL-28 melanoma; KM12 colon; HCC-2998 colon; NCI-H460 lung; HT29 colon; SN12C renal; LOX IMVI melanoma.
Holding throughout (assay): NCI-60 cell line screen, 48 h

Each structure is given as a SMILES string.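 Method: 48-hour compound exposure of cells in 96-well plates, five concentrations, linear interpolation of endpoints. At the TGI there is no net growth.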

The text below walks through data of PubChem BioAssay (NCI).

For the compound `CCCCCCCCCCCCCCCCCc1cccc(OCOCCOC)c1CO`, the TGI in the experiment with EKVX NSCLC, in the experiment on MCF7 breast, with SNB-75 CNS, in the experiment with BT-549 breast, in the experiment with HL-60(TB) leukemia and in the experiment with UACC-257 melanoma was over 100 µM throughout. In addition, the TGI with 786-0 renal, with MDA-MB-435, with HOP-62 NSCLC, in the experiment with CCRF-CEM leukemia, in the experiment on SK-MEL-5 melanoma and with SR leukemia was over 100 µM each time. Further, the TGI in the experiment on RPMI-8226 leukemia, in the experiment on SK-MEL-28 melanoma, in the experiment on KM12 colon, with HCC-2998 colon, in the experiment with NCI-H460 lung and in the experiment on HT29 colon was over 100 µM throughout.
Consider `COc1ccc2c(c1)OCc1c-2oc2ccccc2c1=O`, for which the TGI in the experiment with EKVX NSCLC was over 100 µM; in the experiment on MCF7 breast it was over 100 µM; in the experiment with SNB-75 CNS it was 92.4 µM; in the experiment with BT-549 breast it was over 100 µM; in the experiment with UACC-257 melanoma it was over 100 µM; in the experiment with 786-0 renal, over 100 µM. In addition, the TGI in the experiment on MDA-MB-435, in the experiment on HOP-62 NSCLC, in the experiment with SN12C renal, in the experiment on CCRF-CEM leukemia, with SK-MEL-5 melanoma and in the experiment with SR leukemia was over 100 µM each time. Further, the TGI in the experiment with LOX IMVI melanoma, with RPMI-8226 leukemia, with KM12 colon, in the experiment with HCC-2998 colon and with HT29 colon was over 100 µM throughout.
Regarding `COC12C=CC(CC1)C(C)(C)C2=O` (centres undefined), the TGI in the experiment on EKVX NSCLC, in the experiment with MCF7 breast, in the experiment on SNB-75 CNS, in the experiment on BT-549 breast, with HL-60(TB) leukemia and with UACC-257 melanoma was over 100 µM each time. The TGI with 786-0 renal, in the experiment on MDA-MB-435, with HOP-62 NSCLC, in the experiment with SN12C renal, with CCRF-CEM leukemia and in the experiment with SK-MEL-5 melanoma was over 100 µM throughout. Further, the TGI with SR leukemia, in the experiment with RPMI-8226 leukemia, in the experiment with SK-MEL-28 melanoma, with KM12 colon, in the experiment on HCC-2998 colon and with NCI-H460 lung was over 100 µM throughout. The TGI in the experiment with HT29 colon is over 100 µM.
As to `Cc1nc(N)c(N2CCNCC2)c(=O)[nH]1`, the TGI in the experiment with EKVX NSCLC, in the experiment with MCF7 breast, with SNB-75 CNS, in the experiment on BT-549 breast, in the experiment on HL-60(TB) leukemia and with UACC-257 melanoma was over 100 µM throughout. For the same compound, the TGI in the experiment on 786-0 renal, in the experiment on MDA-MB-435, with HOP-62 NSCLC, in the experiment on SN12C renal, in the experiment on CCRF-CEM leukemia and in the experiment on SR leukemia was over 100 µM each time. The TGI in the experiment with LOX IMVI melanoma, in the experiment with RPMI-8226 leukemia, in the experiment on SK-MEL-28 melanoma, with KM12 colon, in the experiment with HCC-2998 colon and in the experiment with NCI-H460 lung was over 100 µM in each case. In addition, the TGI in the experiment with HT29 colon was over 100 µM.
On to `Clc1cccc(Cl)c1C1SCC2=Nc3ccccc3CN21` (centres undefined), for which the TGI with EKVX NSCLC is 73.6 µM; with MCF7 breast, 52.7 µM; with SNB-75 CNS it was over 100 µM; in the experiment with BT-549 breast it was over 100 µM; with HL-60(TB) leukemia, over 100 µM; with UACC-257 melanoma, over 100 µM. In addition, the TGI with 786-0 renal was 32.4 µM; in the experiment with MDA-MB-435, over 100 µM; with HOP-62 NSCLC, 48.9 µM; in the experiment on SN12C renal, over 100 µM; in the experiment on CCRF-CEM leukemia, over 100 µM; in the experiment with SK-MEL-5 melanoma, 29.2 µM. Also, the TGI was over 100 µM with SR leukemia; 41.1 µM in the experiment on LOX IMVI melanoma; over 100 µM in the experiment on RPMI-8226 leukemia; 91.2 µM in the experiment with SK-MEL-28 melanoma; 48.1 µM in the experiment with KM12 colon; over 100 µM in the experiment on HCC-2998 colon. In the experiment with NCI-H460 lung, this compound gave a TGI of over 100 µM.
Consider `CC/C(=N/O)c1ccc(Br)s1`, for which the TGI with EKVX NSCLC, in the experiment with MCF7 breast, with SNB-75 CNS, in the experiment with BT-549 breast, in the experiment with HL-60(TB) leukemia and in the experiment on UACC-257 melanoma was over 100 µM throughout. For the same compound, the TGI with 786-0 renal was over 100 µM; in the experiment with MDA-MB-435 it was over 100 µM; with HOP-62 NSCLC it was over 100 µM; in the experiment on SN12C renal, over 100 µM; in the experiment on CCRF-CEM leukemia it was 97.1 µM; in the experiment on SK-MEL-5 melanoma, over 100 µM. Also, the TGI in the experiment on SR leukemia, in the experiment with LOX IMVI melanoma, in the experiment with SK-MEL-28 melanoma, in the experiment with KM12 colon, with HCC-2998 colon and in the experiment with NCI-H460 lung was over 100 µM throughout. The compound further displayed a TGI in the experiment on HT29 colon of over 100 µM.
`COc1ccc(OC)c2c1C(=O)C(Cl)=C(N1CCN(CCOCCO)CC1)C2=O`: the TGI was 35.5 µM in the experiment on EKVX NSCLC; 15 µM with MCF7 breast; 29.3 µM in the experiment on SNB-75 CNS; 28 µM in the experiment on BT-549 breast; 3.33 µM in the experiment on HL-60(TB) leukemia; 33 µM in the experiment with UACC-257 melanoma. In addition, the TGI is 13.3 µM with 786-0 renal; 27.9 µM in the experiment with MDA-MB-435; 22.7 µM with HOP-62 NSCLC; 25.5 µM in the experiment on SN12C renal; 14.1 µM in the experiment on CCRF-CEM leukemia; 31.3 µM in the experiment with SK-MEL-5 melanoma. The TGI in the experiment with SR leukemia was determined as 29.3 µM; in the experiment on RPMI-8226 leukemia it was 26.5 µM; with SK-MEL-28 melanoma, 30.9 µM; in the experiment with KM12 colon, 37.2 µM; with HCC-2998 colon it was 24.9 µM; with NCI-H460 lung, 38 µM. The same compound came in with a TGI with HT29 colon of 19.8 µM.
`S=C(/N=c1/sc(Nc2ccccc2)nc2sc3c(c12)CCCC3)Nc1ccccc1`: the TGI in the experiment on EKVX NSCLC, in the experiment with MCF7 breast, in the experiment on BT-549 breast, in the experiment with HL-60(TB) leukemia, with UACC-257 melanoma and in the experiment on 786-0 renal was over 62.5 µM throughout. The TGI in the experiment on MDA-MB-435, in the experiment on HOP-62 NSCLC, in the experiment on SN12C renal, with CCRF-CEM leukemia, in the experiment on SK-MEL-5 melanoma and in the experiment on SR leukemia was over 62.5 µM throughout. In addition, the TGI with LOX IMVI melanoma, with RPMI-8226 leukemia, in the experiment on SK-MEL-28 melanoma, with KM12 colon, in the experiment with HCC-2998 colon and in the experiment on NCI-H460 lung was over 62.5 µM throughout. In the experiment with HT29 colon, this compound showed a TGI of over 62.5 µM.
